Some test systems named below: SK-MEL-28 melanoma; OVCAR-5 ovarian; SF-295 CNS; NCI-H23 lung; SR leukemia; NCI-H226 lung; CCRF-CEM leukemia; HCT-116 colon; A549 NSCLC; SW-620 colon; SN12C renal; SF-539 CNS; TK-10 renal; MDA-N; DU-145 prostate; UACC-257 melanoma.
Common to all, as to experiment: NCI tumour cell line growth inhibition, 48 h

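Five concentrations, 48 hours, 96-well plates. TGI marks complete inhibition of growth.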

As for `COc1ccc(S(=O)(=O)O)cc1-n1nc(C(=O)Nc2ccccc2)n[n+]1-c1cc(S(=O)(=O)[O-])ccc1OC`, the TGI with SK-MEL-28 melanoma, in the test on OVCAR-5 ovarian, in the test with SF-295 CNS, in the test on NCI-H23 lung, in the test with SR leukemia and with NCI-H226 lung was more than 100 µM each time. The TGI in the test on CCRF-CEM leukemia, in the test on HCT-116 colon, in the test with A549 NSCLC, with SW-620 colon, in the test on SN12C renal and in the test with SF-539 CNS was more than 100 µM each time. Also, the TGI in the test with TK-10 renal, in the test on MDA-N and with DU-145 prostate was more than 100 µM each time.

Regarding `COC(=O)C(CCc1ccccc1I)C1=CCC2(CC1)OCCO2` (centres undefined), the TGI in the test with SK-MEL-28 melanoma is more than 100 µM; with OVCAR-5 ovarian, 95.8 µM; with SF-295 CNS, more than 100 µM; in the test on NCI-H23 lung, more than 100 µM; with SR leukemia, more than 100 µM; with NCI-H226 lung, more than 100 µM. In addition, the TGI with CCRF-CEM leukemia was 33.7 µM; in the test with UACC-257 melanoma, more than 100 µM; in the test on A549 NSCLC, more than 100 µM; in the test with SW-620 colon, more than 100 µM; in the test on SF-539 CNS it was more than 100 µM; in the test with TK-10 renal it was more than 100 µM. The TGI in the test on MDA-N was 94.3 µM; in the test on DU-145 prostate it was more than 100 µM.

Turning to `CCOC(=O)c1cc(C(=O)c2ccccc2)n2nc(-c3ccc(Cl)cc3)ccc12`, the TGI in the test on SK-MEL-28 melanoma was 68.3 µM; in the test on OVCAR-5 ovarian, 58 µM; in the test with SF-295 CNS, 54.2 µM; with NCI-H23 lung it was more than 100 µM; in the test on SR leukemia it was more than 100 µM; with NCI-H226 lung, 55.8 µM. Moreover, the TGI is more than 100 µM in the test with CCRF-CEM leukemia; 97.1 µM with UACC-257 melanoma; more than 100 µM in the test with HCT-116 colon; 30.8 µM in the test with A549 NSCLC; more than 100 µM with SW-620 colon; 78.6 µM in the test with SN12C renal. Further, the TGI is 47.8 µM with TK-10 renal, more than 100 µM with MDA-N and 85.2 µM in the test with DU-145 prostate.

Consider `NC(=O)c1nnc2cc(F)ccc2c1N`, for which the TGI in the test on OVCAR-5 ovarian, with SF-295 CNS, in the test on NCI-H23 lung, with SR leukemia, with NCI-H226 lung and in the test with CCRF-CEM leukemia was more than 100 µM in each case. Also, the TGI in the test with UACC-257 melanoma, with HCT-116 colon, with A549 NSCLC, with SW-620 colon, in the test with SN12C renal and in the test on SF-539 CNS was more than 100 µM throughout. In addition, the TGI with TK-10 renal, in the test on MDA-N and with DU-145 prostate was more than 100 µM throughout.

`c1ccc(-c2sc(-c3cccs3)cc2Cc2cccs2)cc1`: the TGI with SK-MEL-28 melanoma, in the test on SF-295 CNS, in the test with NCI-H23 lung, in the test on SR leukemia, with NCI-H226 lung and with CCRF-CEM leukemia was more than 10 µM throughout. For the same compound, the TGI in the test with UACC-257 melanoma, with HCT-116 colon, with A549 NSCLC, in the test with SW-620 colon, with SN12C renal and with SF-539 CNS was more than 10 µM in each case. In addition, the TGI in the test with TK-10 renal, in the test with MDA-N and in the test on DU-145 prostate was more than 10 µM in each case.

`COC1=C(N=[N+]=[N-])C(=O)c2ncccc2C1=O`: the TGI is 27.4 µM in the test on SK-MEL-28 melanoma; 33.8 µM in the test with OVCAR-5 ovarian; 29 µM in the test with SF-295 CNS; 16.1 µM in the test on NCI-H23 lung; more than 100 µM with SR leukemia; 35.9 µM in the test with NCI-H226 lung. For the same compound, the TGI was determined as 13 µM with UACC-257 melanoma; 6.57 µM with HCT-116 colon; 32.1 µM in the test on A549 NSCLC; 4.24 µM in the test with SW-620 colon; 29.1 µM with SN12C renal; 30.5 µM in the test on SF-539 CNS. For the same compound, the TGI with TK-10 renal was found to be 20.4 µM; in the test on MDA-N, 3.69 µM; with DU-145 prostate it was 35.1 µM.

Take `Cc1c(C(=O)N2CCN(c3ccc([N+](=O)[O-])cc3)CC2)[n+](=O)c2cc(Cl)c(Cl)cc2n1[O-]`: the TGI is 73.4 µM in the test on SK-MEL-28 melanoma; 44 µM with OVCAR-5 ovarian; 34.2 µM in the test with SF-295 CNS; 32 µM with NCI-H23 lung; 61.2 µM with SR leukemia; more than 100 µM in the test with CCRF-CEM leukemia. In addition, the TGI is more than 100 µM with UACC-257 melanoma; 40.5 µM with HCT-116 colon; 48.5 µM in the test with A549 NSCLC; more than 100 µM in the test on SW-620 colon; 38.2 µM in the test on SN12C renal; 32.6 µM with SF-539 CNS. For the same compound, the TGI in the test with TK-10 renal was 39.3 µM; with MDA-N, more than 100 µM; in the test with DU-145 prostate, 43.9 µM.

As for `COc1ccc2[nH]c(Cl)c(/C=C3/C(=O)Nc4cc(C)c(OC)cc43)c2c1`, the TGI is 22.1 µM in the test on SK-MEL-28 melanoma; 27.2 µM in the test on OVCAR-5 ovarian; 6 µM with SF-295 CNS; 19 µM in the test on NCI-H23 lung; more than 100 µM with SR leukemia; 19.1 µM with CCRF-CEM leukemia. The TGI in the test on UACC-257 melanoma worked out at 23.6 µM; in the test with HCT-116 colon, 15.7 µM; in the test with A549 NSCLC it was 92.6 µM; in the test with SW-620 colon, 18.1 µM; in the test on SN12C renal, 20.1 µM; in the test on SF-539 CNS it was 4.8 µM. Further, the values for the TGI in the test on TK-10 renal, in the test on MDA-N and in the test on DU-145 prostate were 21.3 µM, 3.5 µM and 29.4 µM, respectively.

`O=C(NCCC(F)(F)C(F)(F)C(F)(F)C(F)(F)F)NC1OC(CO)C(O)C(O)C1O` (centres undefined): the TGI in the test on SK-MEL-28 melanoma, in the test on OVCAR-5 ovarian, in the test on SF-295 CNS, in the test with NCI-H23 lung, in the test with SR leukemia and in the test on CCRF-CEM leukemia was more than 100 µM each time. In addition, the TGI in the test on UACC-257 melanoma, with HCT-116 colon, with A549 NSCLC, with SW-620 colon, in the test on SN12C renal and in the test with SF-539 CNS was more than 100 µM in each case. Besides, the TGI in the test on TK-10 renal, with MDA-N and in the test on DU-145 prostate was more than 100 µM each time.

Values taken from PubChem BioAssay (NCI).
